US4275057A (The United States of America as represented by the …, priority 1980, dated 1981)

Assays:
adenosine deaminase = conditions: qualitative statement; cited from earlier work
[1] = target: T1, Mouse kidney cytidine deaminase (Mus musculus, UniProt P56389); test: Cytidine deaminase inhibition, mouse kidney enzyme; assay type: biochemical
T1 construct: isolated and partially purified from mouse kidney acetone powder; tissue Sigma Chemical Co; host or cells: mouse kidney (acetone powder, buffer extract, ammonium sulfate fractionation)
T1 sequence (P56389 whole entry): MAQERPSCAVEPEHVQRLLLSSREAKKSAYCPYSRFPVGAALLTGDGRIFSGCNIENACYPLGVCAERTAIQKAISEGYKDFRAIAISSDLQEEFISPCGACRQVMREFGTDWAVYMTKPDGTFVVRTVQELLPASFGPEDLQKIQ

[2] = target: T2, Cytidine deaminase from human liver (Homo sapiens, UniProt P32320); test: Cytidine deaminase inhibition, human liver enzyme; assay type: biochemical
T2 construct: Cytidine deaminase from human liver was isolated; from tissue; host or cells: human liver
T2 sequence (P32320 whole entry): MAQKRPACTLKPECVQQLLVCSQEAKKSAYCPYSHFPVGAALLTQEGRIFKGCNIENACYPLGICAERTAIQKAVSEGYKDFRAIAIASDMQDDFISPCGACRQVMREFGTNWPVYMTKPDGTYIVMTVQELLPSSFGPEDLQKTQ

Ki [1]	Ki [2]	SMILES	inhibition of adenosine deaminase (in words) (adenosine deaminase)
		OC[C@H]1O[C@@H](n2cnc3c2N=CNC[C@H]3O)C[C@@H]1O [2'-deoxycoformycin]	very potent adenosine deaminase inhibitor
0.2 µM		O=C1NCCCCN1C1C[C@H](O)[C@@H](CO)O1 (stereo partly drawn) [Compound 3d, 1-(2-deoxy-D-erythro-pentofuranosyl)-perhydro-1,3-diazepin-2-one]	
10 µM	10 µM	O=C1CCNC(=O)N([C@@H]2O[C@H](CO)[C@@H](O)[C@H]2O)C1 [Compound 8b, 3-(β-D-Ribofuranosyl)-5-keto-perhydro-1,3-diazepin-2-one]	
